Entries after “also recorded” stand apart in the source; their conditions may differ.
How the values were obtained:
[1] = tested on: apoptosis; details: in vitro and in vivo; blocking classic pathways, induction of survival pathways; cited from earlier work
[2] = Animal weight recordings in TUDCA-treated P23H rats; format: in vivo, rat; details: p<0.05, TUDCA 100-200 mg/kg/d subcutaneous, suggests systemic toxicity
Procedure: (§1) Preliminary Study: Homozygous line 1 and line 3 P23H rats (very strong model of rapid retinal degeneration, especially in the homozygous state), were given 100-200 mg/kg/d of TUDCA via subcutaneous injections while control animals will be given placebo vehicle only. Animals were sacrificed at intervals that correspond to the known retinal degenerations. Eyes were enucleated and the neurosensory retina was examined for signs of neuroprotection by counting the cell nuclei in the various retinal layers (FIG. 1; study design). For each animal studied, 14 sections were taken for each eye with 30-50 separate measurements performed and averaged for each section. Counting the average number of outer nuclear layer (ONL) cells was used to determine the level of retinal injury or loss.

[3] = tested on: Parkinsonian rats; details: cited from earlier work
[4] = tested on: Huntington's disease animal models; details: animal models of Huntington's disease; cited from earlier work
[5] = tested on: inherited retinal degeneration (rds mouse); details: preliminary work; cited from earlier work
[6] = tested on: neurologic injury after acute ischemic or hemorrhagic stroke; details: cited from earlier work
[7] = tested on: neurosensory retinal degeneration (P23H rat); test: Outer nuclear layer (ONL) cell counting / retinal histopathology in homozygous P23H rats given TUDCA subcutaneously; format: in vivo
Description: We have studied the use of bile acids (tauroursodeoxycholic acid, TUDCA) for inhibition of neurosensory retinal degeneration in an animal model of retinal degeneration (P23H rat).
Animal Studies: The P23H rat model of inherited retinal degeneration is an animal model of a common mutation found in >10% of autosomal dominantly inherited retinitis pigmentosa in humans. This animal model has been studied in the laboratory of Dr. Olsen at the University of Minnesota. The mechanism of retinal degeneration is mediated by apoptosis, but may follow a separate pathway than that of the rds mouse. The P23H rat model represents a protein conformational disorder that leads to retinal degeneration. Other examples of protein conformation disorders include Huntington's and Parkinson's disease.
as §1

C[C@H](CCC(=O)NCCS(=O)(=O)O)[C@H]1CC[C@H]2[C@@H]3[C@@H](O)C[C@@H]4C[C@H](O)CC[C@]4(C)[C@H]3CC[C@]12C [TUDCA, tauroursodeoxycholic acid]
interruption of apoptosis [1]: will interrupt apoptosis
animal weight, treated vs controls ([2]; P23H rat line 1, by day 37 and beyond): significant weight loss
animal weight, treated vs controls ([2]; P23H rat line 3, by day 37 and beyond): significant weight loss
graft survival [3]: improved graft survival
neuroprotection [4]: neuroprotective
electroretinographic response (functional test of vision) [5]: preservation of visual function
protection of the inner nuclear layer of the retina [5]: dramatic protection of the inner nuclear layer of the retina
protection against neurologic injury [6]: protect against neurologic injury
thickness of the ONL in histopathologic images, drug treated vs vehicle ([7]; homozygous P23H rat line 1, week 12, TUDCA 100-200 mg/kg/d subcutaneous, FIG. 2): visible difference in the thickness of the drug treated ONL as compared to the vehicle
average number of ONL cells, TUDCA vs vehicle controls ([7]; homozygous P23H rat line 1, weeks 7, 10 and 12, TUDCA 100-200 mg/kg/d subcutaneous, FIG. 3): no statistically significant differences; also recorded: no statistically significant protective effect
rate of retinal degeneration by counting the ONL layer thickness ([7]; homozygous P23H rat line 3, 9 week post-natal time point, p=0.16 (not statistically significant), TUDCA 100-200 mg/kg/d subcutaneous, FIG. 4): trend toward a protective effect
thickness of the ONL in histopathologic images, drug treated vs control ([7]; homozygous P23H rat line 3, TUDCA 100-200 mg/kg/d subcutaneous, FIG. 2): less noticeable difference between the drug treated and the control
